Patent US20250297224A1, “CARDIOMYOCYTES AND COMPOSITIONS AND METHODS FOR PRODUCING THE SAME” (President and Fellows of Harvard College, priority 2021, published 2025)

Assays:
Assay type in all cases: cell-based, human
[1] = tested on: iPSC-derived cardiomyocytes; assay: Protein expression of cardiac markers in iPSC-CMs, 3D suspension culture, FOXO/FOXM1 modulators; details: for protein expression of TNNI3 / protein expression of TNNT2: 3D suspension culture
Excerpt: (§1) FOXO activation with LOM612 enhances protein (FIG. 19B) but not RNA expression of Kir2.1 (FIG. 19A). FOXO activation increases the upstroke velocity (spike slope) (FIG. 19C).
(§2) Cell lines used included UCSD142i-86-1 iPSC line (WiCell), Gibco human episomal iPSC line (Thermo), and DiPS 1016SevA iPSC line (Harvard. Cardiomyocytes are obtained utilizing a differential protocol adapted from Lian et al. Nat Protoc 2013: 8 (1): 162-75 (FIG. 16A). The differentiation protocol may be modified utilizing modulators of FOXO and FOXM1 (FIG. 16B). Cardiomyocytes may be characterized as being contractility mature, metabolically mature, or electrophysiologically mature (FIG. 16C).

[2] = tested on: iPSC-derived cardiomyocytes; assay: Contractile and electrophysiological properties by multielectrode array analysis, FOXO/FOXM1 modulators; details: for contractility: iPSC-derived cardiomyocytes
Excerpt: as §2
The contractile properties of cardiomyocytes improved with FOXO activation. FOXO activation with LOM612 or FOXM1 inhibition with RCM-1 increases protein expression of cardiac troponin T (TNNT2) and increases mean beat amplitude by multielectrode array analysis (FIG. 17). […] AS1842856 may be applied in an amount of about 0.2 to 1 μM.
(§3) FOXO activation improved electrophysiological properties of PSC-CMs. FOXO activation with LOM612 enhances protein, but not RNA expression of Kir2.1 (FIGS. 19A-19B). FOXO activation increases the upstroke velocity (spike slope) (FIG. 19C).

PSC-CMs [3] = assay: Oxygen consumption rate and respiratory reserve capacity of PSC-CMs
Excerpt: FOXO activation with LOM612 (FIG. 18A) or FOXM1 inhibition with RCM-1 (FIG. 18B) increases maximum oxygen consumption rate (OCR) and respiratory reserve capacity, while inhibition of FOXO with AS1842856 (FIG. 18C) inhibits maximum OCR and respiratory reserve capacity.
In some embodiments, the cardiomyocytes are metabolically mature cardiomyocytes. In some aspects, a cardiomyocyte has increased metabolic activity as compared to an immature cardiomyocyte. In some embodiments, a cardiomyocyte has increased oxygen consumption and/or extracellular acidification rate as compared to immature cardiomyocytes. In some embodiments, a cardiomyocyte has increased respiratory reserve as compared to immature cardiomyocytes. Metabolic maturity may be quantified using a Seahorse mito stress metabolic assay (Agilent). The assay may be used to measure oxygen consumption rate and extracellular acidification rate in response to one or more compounds (e.g., small molecule compounds) that affect mitochondrial function.
FOXO activation with LOM612 or FOXM1 inhibition with RCM-1 increases maximum oxygen consumption rate (OCR) and respiratory reserve capacity, while inhibition of FOXO with AS1842856 inhibits maximum OCR and respiratory reserve capacity (FIG. 18).

iPSC-CMs [4] = assay: Multielectrode array (Axion Maestro Edge) of iPSC-CMs in 3D culture; details: iPSC-CMs differentiated and treated in 3D
Excerpt: Nutlin-3a increases the percentage (FIG. 12A) and mean fluorescence intensity (MFI) (FIG. 12B) of TNNT2 in iPSC-CMs as well as the percentage (FIG. 12C) and MFI (FIG. 12D) of Kir2.1 in TNNT2+iPSC-CMs by flow cytometry. Nutlin-3a increases the percentage (FIG. 12E) and MFI (FIG. 12F) of p53 in TNNT2+iPSC-CMs. Nutlin-3a increases mean beat amplitude (FIG. 12G) and mean spike amplitude (FIG. 12H) of iPSC-CMs as quantified using a multielectrode array. *p<0.05. **p<0.01. ***p<0.001. ****p<0.0001 by one-way ANOVA. iPSC-CMs differentiated and treated in 3D.
(§4) Kir2.1 is the ion channel largely responsible for maintaining the resting membrane potential via the inward rectifier current (IK1); at lower levels, abnormal membrane depolarization can increase the risk of ventricular arrhythmias (8, 9). Nutlin-3a but not Torin1 treatment of iPSC-CMs increased expression of TNNT2 and Kir2.1 (FIG. 12A-12D). Also, Nutlin-3a but not Torin1 increased expression of p53, which may support induction of a quiescent state (FIG. 12E-12F).

iPSC-CMs [5] = assay: Flow cytometry of marker expression in iPSC-CMs differentiated and treated in 3D culture
Excerpt: Nutlin-3a increases the percentage (FIG. 12A) and mean fluorescence intensity (MFI) (FIG. 12B) of TNNT2 in iPSC-CMs as well as the percentage (FIG. 12C) and MFI (FIG. 12D) of Kir2.1 in TNNT2+iPSC-CMs by flow cytometry. Nutlin-3a increases the percentage (FIG. 12E) and MFI (FIG. 12F) of p53 in TNNT2+iPSC-CMs. Nutlin-3a increases mean beat amplitude (FIG. 12G) and mean spike amplitude (FIG. 12H) of iPSC-CMs as quantified using a multielectrode array. *p<0.05. **p<0.01. ***p<0.001. ****p<0.0001 by one-way ANOVA. iPSC-CMs differentiated and treated in 3D. […]
as §4

iPSC-CMs [6] = assay: Resting membrane potential of iPSC-CMs in 2D culture; details: Torin1 200 nM, compared to control (DMSO)
Excerpt: Pluripotent stem cell-derived cardiomyocytes (PSC-CMs) offer a regenerative approach to treat patients with systolic heart failure. However, delivery of immature PSC-CMs may increase the risk of ventricular arrhythmias, which is a barrier to clinical translation (1, 2). It was recently identified that inhibition of the mechanistic target of rapamycin (mTOR) pathway improves maturation of cardiomyocytes derived from induced pluripotent stem cells (iPSCs) in two-dimensional (2D) culture (3). […] This could greatly simplify the manufacturing process compared to other protocols that take 2 months to produce mature PSC-CMs with similar resting membrane potentials (4).

PSC-CMs [7] = assay: RNA expression of cardiac markers in PSC-CMs
Excerpt: as §1, §3

Row | SMILES | protein expression of TNNI3 [1] | protein expression of TNNT2 [1] | mean beat amplitude by multielectrode array analysis ([2]; 3D suspension culture) | contractility [2] | maximum oxygen consumption rate (OCR) (PSC-CMs [3]) | respiratory reserve capacity (PSC-CMs [3]) | mean fluorescence intensity (MFI) of Kir2.1 (iPSC-CMs [5]; flow cytometry) | mean fluorescence intensity (MFI) of p53 (iPSC-CMs [5]; flow cytometry) | percentage of Kir2.1 in TNNT2+ iPSC-CMs (iPSC-CMs [5]; flow cytometry) | percentage of TNNT2 in iPSC-CMs (% TNNT2+) (iPSC-CMs [5]; flow cytometry) | percentage of p53 in TNNT2+ iPSC-CMs (iPSC-CMs [5]; flow cytometry) | expression of Kir2.1 (iPSC-CMs [5]; iPSC-CMs) | expression of p53 (iPSC-CMs [5]; iPSC-CMs) | other results
1 | CN(C)c1nsc2c1C(=O)c1ccccc1C2=O [LOM612] | increases | increases | increases | enhances | increases | increases |  |  |  |  |  |  |  | protein expression of Kir2.1 ([1]; PSC-CMs): enhances; upstroke velocity (spike slope) ([2]; FOXO activation, PSC-CMs): increases
2 | COc1ccc(C2=N[C@@H](c3ccc(Cl)cc3)[C@@H](c3ccc(Cl)cc3)N2C(=O)N2CCNC(=O)C2)c(OC(C)C)c1 [Nutlin-3a, nutlin-3a] |  |  |  |  |  |  | increases | increases | increases | increases | increases | increased | increased | mean beat amplitude (iPSC-CMs [4]): increases; mean spike amplitude (iPSC-CMs [4]): increases; mean fluorescence intensity (MFI) of TNNT2 (iPSC-CMs [5]; flow cytometry): increases; expression of TNNT2 (iPSC-CMs [5]; iPSC-CMs): increased
3 | CCC(=O)N1CCN(c2ccc(-n3c(=O)ccc4cnc5ccc(-c6cnc7ccccc7c6)cc5c43)cc2C(F)(F)F)CC1 [Torin1] |  |  |  |  |  |  |  |  |  |  |  |  |  | resting membrane potential (iPSC-CMs [6]): decreased
4 | N#Cc1c(-c2cccs2)cc(-c2cccs2)nc1SCC(=O)c1cccs1 [RCM1] | increases | increases | increases |  | increases | increases | increases |  | increases | increases |  | increased |  | purity of iPSC-CMs (iPSC-CMs [5]): increased
5 | CCn1cc(C(=O)O)c(=O)c2c(N)c(F)c(NC3CCCCC3)cc21 [AS1842856] | decreases | decreases |  | poorly contractile cells | inhibits | inhibits |  |  |  |  |  |  |  | cardiac marker RNA levels (PSC-CMs [7]): reduce; beating of spheroids ([2]; 3D suspension culture): non-beating spheroids
6 | O=c1c(O)c(-c2ccc(O)c(O)c2)oc2cc(O)cc(O)c12 [Quercetin, quercetin] |  |  |  |  |  |  | increases | increases | increases |  | increases | increased | increased | 
